Source: ChEMBL document CHEMBL1143589, “Effects of 5'-phosphate derivatives of 2-hexynyl adenosine and 2-phenylethynyl adenosine on responses of human platelets mediated by P2Y receptors” (J Med Chem, 2005)

Tests used:
Type in all cases: functional
[1] = Effect of compound at 1 uM on platelet aggregation induced by 10 uM ADP
[2] = Inhibitory effect of ADP (10 uM) on PGE1 (2 uM)-induced increase in platelet cAMP levels at 100 uM concentration of compound
[3] = Inhibitory effect of ADP (10 uM) on PGE1 (2 uM)-induced increase in platelet cAMP levels at 10 uM concentration of compound
[4] = Effect of compound at 100 uM on platelet aggregation induced by 10 uM ADP
[5] = Inhibitory concentration of compound on platelet aggregation
[6] = Effect of compound at 800 uM on platelet aggregation induced by 10 uM ADP
[7] = Effect of compound at 10 uM on platelet aggregation induced by 10 uM ADP
[8] = Inhibitory effect of ADP (10 uM) on PGE1 (2 uM)-induced increase in platelet cAMP levels at 800 uM concentration of compound
[9] = Inhibitory effect of ADP (10 uM) on PGE1 (2 uM)-induced increase in platelet cAMP levels at 1 uM concentration of compound
[10] = Effect of compound on elevation of cAMP levels induced by 2 uM PGE1 at 10 uM
[11] = Platelet shape change and aggregation induced by the compound at 10 uM concentration
[12] = Platelet shape change and aggregation induced by the compound at 1 uM concentration
[13] = Effect of compound on elevation of cAMP levels induced by 2 uM PGE1 at 1 uM
[14] = Effect of compound on elevation of cAMP levels induced by 2 uM PGE1 at 100 uM
[15] = Platelet shape change and aggregation induced by the compound at 100 uM concentration

IC50 [5] | SMILES | Activity [1] | Inhibition [2] | Inhibition [3] | Activity [4] | Activity [6] | Activity [7] | Inhibition [8] | Inhibition [9] | Activity [10] | Light transmission [11] | Light transmission [12] | Activity [13] | Activity [14] | Light transmission [15]
60 µM | Nc1nc(C#Cc2ccccc2)nc2c1ncn2C1O[C@H](COP(=O)(O)OP(=O)(O)O)[C@@H](O)[C@H]1O (stereo partly specified) | 81.5 | 4.1% | 2.6% | 43.2 | 9.5 | 77.4 | 29.5% | 1% |  |  |  |  |  | 
 | Nc1ncnc2c1ncn2[C@@H]1O[C@H](COP(=O)(O)OP(=O)(O)O)[C@@H](O)[C@H]1O [ADENOSINE DIPHOSPHATE] |  |  |  |  |  |  |  |  | 34 | 53% |  |  |  | 
85 µM | Nc1nc(C#Cc2ccccc2)nc2c1ncn2[C@@H]1O[C@H](COP(=O)(O)OP(=O)(O)OP(=O)(O)O)[C@@H](O)[C@H]1O | 81 | 5.7% | 1.6% | 46.6 | 0.2 | 81.6 | 68.9% | 1.6% |  |  |  |  |  | 
14 µM | CCCCC#Cc1nc(N)c2ncn(C3O[C@H](COP(=O)(O)O)[C@@H](O)[C@H]3O)c2n1 (stereo partly specified) | 75.2 | 13.6% | 9.6% | 11.8 | 0 | 54.4 | 58.2% | 6.7% |  |  |  |  |  | 
 | CCCCC#Cc1nc(N)c2ncn(C3O[C@H](COP(=O)(O)OP(=O)(O)OP(=O)(O)O)[C@@H](O)[C@H]3O)c2n1 (stereo partly specified) | 92 |  |  | 64 |  | 90 |  |  | 35 | 9% | 0% | 59 | 27 | 39%
 | CCCCC#Cc1nc(N)c2ncn(C3O[C@H](COP(=O)(O)OP(=O)(O)O)[C@@H](O)[C@H]3O)c2n1 (stereo partly specified) | 98 |  |  | 100 |  | 99 |  |  | 50 | 17% | 0% | 58 | 38 | 41%
130 µM | Nc1nc(C#Cc2ccccc2)nc2c1ncn2C1O[C@H](COP(=O)(O)O)[C@@H](O)[C@H]1O (stereo partly specified) | 86 | 14.9% | 4.1% | 58.4 | 0.2 | 92.8 | 74.4% | 4.6% |  |  |  |  |  | 
